In series [1] the test system is Sk-OV-3. The experiment in a line: Tumor cell killing, Sk-OV-3. It counts as cell-based, human. Particulars: Sk-OV-3, OVARIAN; read-out: Tumor cell killing (IC50) concentration. The procedure:
(§1) Tissue Culture and Reagents: Paclitaxel was purchased from Sigma. Cell lines were purchased from ATCC. Cell lines were routinely grown in DMEM or RPM1 (CellGro) supplemented with 10% fetal bovine serum (Atlas) and 1 unit/mL penicillin-streptomycin (Gibco).
(§2) A number of tumor cell lines were tested using a dose response end point assay system. The cells were grown in either DMEM or RPMI supplemented with 10% fetal bovine serum and 1 unit/mL Penicillin-Streptomycin solution. The tumor cells were plated into 6 well dishes at a cell density of 1.0×10^5 cells/mL/well and compounds were added 24 h later at various concentrations. Cell counts were determined from duplicate wells after 96 h of treatment. The total number of viable cells was determined by trypan blue exclusion.

Series [2] deals with BT20. Kind of series: Soft agar colony formation, BT20. The class given is cell-based, human. Particulars: BT20, dose dependent.
In series [3] the test system is DU145. The experiment in a line: PARP cleavage western blot, tumor cells. It counts as cell-based, human. Particulars: tumor cells (DU145), 24, 48 and 72 h. The procedure: (§3) FIG. 2 Preferential tumor cell killing activity of 6aa. A. Cell Cycle analyses. Normal (HUVEC) and tumor cells (DU145) were treated with 20 nM concentration of 6aa and incubated in medium containing 10% fetal bovine serum. At 24 hr intervals, the cells were fixed, stained with propidium iodide and analyzed for their DNA content by flow Cytometry. B. Induction of apoptosis in normal (HUVEC) and tumor cells (DU145) was assessed by western blot analysis of cell lysates treated with 6aa for 24, 48 and 72 h. The Western blots were probed with anti-PARP antibodies to assess the cleavage of the protein.
[…] were plated at a density of 3.0×10^6 cells per 150 mm^2 plate and treated 24 h later with either DMSO or 6aa. The cells were collected at the indicated time points and cell pellets were frozen. The frozen cell pellets were lysed in 1% NP40/PBS lysis buffer containing protease inhibitors. Equal amounts of total cellular protein was then resolved on a 10%-SDS-polyacrylamide gel. The gels were transferred onto nitrocellulose paper (S/S), hybridized with anti-PARP antibodies (BD) and developed using ECL (Perkin-Elmer, MA) solution.
In general terms: A western blot detects proteins with antibodies after separation by electrophoresis.

In series [4] the test system is HCT-116. The experiment in a line: Tumor cell killing, HCT-116. The settings on record: HCT-116, COLO-RECTAL; read-out: Tumor cell killing (IC50) concentration. It counts as cell-based, human. How it is done: as §1, §2
Series [5] has as its system SW480. The experiment in a line: Tumor cell killing, SW480. The class given is cell-based, human. The settings on record: SW480, COLO-RECTAL; read-out: Tumor cell killing (IC50) concentration. How it is done: as §1, §2
Series [6] deals with DU145. The experiment in a line: Soft agar colony formation, DU145. It counts as cell-based, human. The settings on record: DU145, dose dependent.
Series [7] relates to 2008/17/4. The experiment in a line: Tumor cell killing, 2008/17/4. Particulars: *2008/17/4, Resistant Ovarian (multi-drug resistant); read-out: Tumor cell killing (IC50) concentration. It counts as cell-based, human. The procedure: as §1, §2
Series [8] deals with human vascular endothelial cells (HUVEC). Kind of series: Cell cycle analysis by flow cytometry, normal cells. It counts as cell-based. The settings on record: 20 nM, 24 hr intervals. The procedure:
as §3
Human prostate tumor cells, DU145 cells, and normal diploid human lung fibroblasts, HFL-1 cells, were grown in DMEM (Cellgro) supplemented with 10% fetal bovine serum and 1 unit/mL penicillin-streptomycin. The cells were plated onto 100 mm^2 dishes at a cell density of 1.0×10^6 cells/dish, and 24 h later, they were treated with 2.5 μM of the compound. The cells were harvested 24, 48 and 72 h after treatment. The cells were removed from the plate by trypsin digestion and combined with the non-attached cells found in the medium. The cell pellets were washed in phosphate buffered saline (PBS), and fixed in ice cold 70% ethanol for at least 24 h. […] The stained cells were then analyzed on a Becton-Dickinson (BD) (FACScan) flow cytometer and the data analyzed by cell cycle analysis software (Modfit, BD).

Series [9] deals with BT20 human breast carcinoma xenograft. The experiment in a line: Nude mouse xenograft assay. How it is done:
Female athymic (NCr-nu/nu) mice were injected subcutaneously with 0.5-1×10^7 ER-negative human breast tumor cells (BT-20) in 0.2 mL of PBS and the tumors allowed to grow to a size of 100-150 mm^3 in size in about 14 days. The mice were then paired such that the pairs harbored equal sized tumors, which were then used to test the therapeutic effects of 6s and 6ab. A Of the pairs, the animals were treated with either 50 mg/kg 6s following a Q4D schedule or 25 mg/kg using a Q2D schedule or vehicle (DMSO) control. The tumor size was then measured on alternate days in two dimensions and the volume determined using either of the following equations: 1: V=(L×(S^2))π/6); where L is the longer and S is the shorter of the two measurements. B. 6ab was dissolved in PBS and was administered intravenously (50 mg/kg) through the tail vein on every alternate day. Tumor measurements were done as in materials and methods.
Female athymic (NCR-nu/nu, Taconic) nude mice were injected with 0.5-1.0×10^7 BT20 cells subcutaneously in the hind leg using a 1 mL tuberculin syringe equipped with a 271/2 gauge needle. Approximately 14 days later, mice were paired (N=8) and injected with 6ab or Phosphate buffered saline as the vehicle control. The intravenous injections were performed in the mouse tail vein using a 1 mL tuberculin syringe equipped with a 30 gauge needle. The animals were injected following a Q2D×3 schedule. Tumor measurements (two dimensions) were done three times per week using traceable digital vernier calipers (Fisher).

pIC50: −log10 of the molar value.

Turning to `COc1cc(OC)c(/C=C/S(=O)(=O)Cc2ccc(OC)c(O)c2)c(OC)c1` [6aa, (E)-2,4,6-Trimethoxystyryl-3-Hydroxy-4-Methoxybenzyl Sulfone], the pIC50 in series [1] was 8.22; in series [4] it was 8.05; in [5], 8.15; in series [7], 8.40. The “growth of tumor cells in soft agar” value in series [2] and in series [6] was “complete inhibition of the growth of tumor cells” each time. Also, the “apoptosis as judged by PARP cleavage” value in [3] was “activation of apoptotic pathways”. In addition, in [8], the “effect on cell cycle progression” value is “block of their cell cycle progression in the G1 phase”.

Take `COc1ccc(CS(=O)(=O)/C=C/c2c(OC)cc(OC)cc2OC)cc1` [6s, (E)-2,4,6-Trimethoxystyryl-4-Methoxybenzyl sulfone]: the “fold increase in tumor volume” value in series [9] (25 mg/kg Q2D, IP, 22 day period, vehicle 5 fold) is 2.5 fold. This compound also gave a final tumor volume in [9] (25 mg/kg Q2D, IP, after 22 days, from 67.5 mm^3) of 165 mm^3. Besides, in series [9] (50 mg/kg Q4D or 25 mg/kg Q2D, IP), the “tolerability by body weights and physical observations” value is listed as “well tolerated”. Moreover, the “fold increase in average tumor volume” value in series [9] (50 mg/kg Q4D, IP, 22 day period, vehicle 5 fold) was determined as 2.9 fold. Further, the “final average tumor volume” value in series [9] (50 mg/kg Q4D, IP, after 22 days, from 74 mm^3) is 217 mm^3. Also, the “tumor volume response of the majority of the mice” value in series [9] (8 mice per group) is listed as “growth arrest or a gradual reduction in their tumor volume”.
